Assay results as given in ChEMBL document CHEMBL1156552, “Novel ligands rationally designed for characterizing I2-imidazoline binding sites nature and functions” (J Med Chem, 2008).
Active and inactive are the calls of the source. The calls are words filed in the database; no cut-off is given here.

Key:
Mus musculus [1] = experiment: Effect on morphine-induced analgesia in yohimbine pretreated CD1 mouse at 10 mg/kg, sc by tail flick test; type: functional, organism-based; design: dose 10 mg/kg
Rattus norvegicus [2] = organism: Rattus norvegicus; experiment: Selectivity ratio, IC50 for Imidazoline receptor 1 in Sprague-Dawley rat kidney membrane to Ki for alpha2 adrenoceptor in Sprague-Dawley rat whole brain membrane; type: cell membranes
[3] = Displacement of [3H]RX821002 from Adrenergic alpha2 receptor in Sprague-Dawley rat whole brain membrane
[4] = Binding affinity to Imidazoline receptor 2
Mus musculus [5] = experiment: Reversal of decrease in morphine-induced analgesia in idazoxan pretreated CD1 mouse at 10 mg/kg, sc by tail flick assay; type: functional, organism-based; design: dose 10 mg/kg
Nischarin [6] = target: T1, Nischarin (Rattus norvegicus, UniProt Q4G017); experiment: Displacement of [3H]clonidine from Imidazoline receptor 1 rat PC-12 cells; type: cell-based
T1 sequence (Q4G017 whole entry): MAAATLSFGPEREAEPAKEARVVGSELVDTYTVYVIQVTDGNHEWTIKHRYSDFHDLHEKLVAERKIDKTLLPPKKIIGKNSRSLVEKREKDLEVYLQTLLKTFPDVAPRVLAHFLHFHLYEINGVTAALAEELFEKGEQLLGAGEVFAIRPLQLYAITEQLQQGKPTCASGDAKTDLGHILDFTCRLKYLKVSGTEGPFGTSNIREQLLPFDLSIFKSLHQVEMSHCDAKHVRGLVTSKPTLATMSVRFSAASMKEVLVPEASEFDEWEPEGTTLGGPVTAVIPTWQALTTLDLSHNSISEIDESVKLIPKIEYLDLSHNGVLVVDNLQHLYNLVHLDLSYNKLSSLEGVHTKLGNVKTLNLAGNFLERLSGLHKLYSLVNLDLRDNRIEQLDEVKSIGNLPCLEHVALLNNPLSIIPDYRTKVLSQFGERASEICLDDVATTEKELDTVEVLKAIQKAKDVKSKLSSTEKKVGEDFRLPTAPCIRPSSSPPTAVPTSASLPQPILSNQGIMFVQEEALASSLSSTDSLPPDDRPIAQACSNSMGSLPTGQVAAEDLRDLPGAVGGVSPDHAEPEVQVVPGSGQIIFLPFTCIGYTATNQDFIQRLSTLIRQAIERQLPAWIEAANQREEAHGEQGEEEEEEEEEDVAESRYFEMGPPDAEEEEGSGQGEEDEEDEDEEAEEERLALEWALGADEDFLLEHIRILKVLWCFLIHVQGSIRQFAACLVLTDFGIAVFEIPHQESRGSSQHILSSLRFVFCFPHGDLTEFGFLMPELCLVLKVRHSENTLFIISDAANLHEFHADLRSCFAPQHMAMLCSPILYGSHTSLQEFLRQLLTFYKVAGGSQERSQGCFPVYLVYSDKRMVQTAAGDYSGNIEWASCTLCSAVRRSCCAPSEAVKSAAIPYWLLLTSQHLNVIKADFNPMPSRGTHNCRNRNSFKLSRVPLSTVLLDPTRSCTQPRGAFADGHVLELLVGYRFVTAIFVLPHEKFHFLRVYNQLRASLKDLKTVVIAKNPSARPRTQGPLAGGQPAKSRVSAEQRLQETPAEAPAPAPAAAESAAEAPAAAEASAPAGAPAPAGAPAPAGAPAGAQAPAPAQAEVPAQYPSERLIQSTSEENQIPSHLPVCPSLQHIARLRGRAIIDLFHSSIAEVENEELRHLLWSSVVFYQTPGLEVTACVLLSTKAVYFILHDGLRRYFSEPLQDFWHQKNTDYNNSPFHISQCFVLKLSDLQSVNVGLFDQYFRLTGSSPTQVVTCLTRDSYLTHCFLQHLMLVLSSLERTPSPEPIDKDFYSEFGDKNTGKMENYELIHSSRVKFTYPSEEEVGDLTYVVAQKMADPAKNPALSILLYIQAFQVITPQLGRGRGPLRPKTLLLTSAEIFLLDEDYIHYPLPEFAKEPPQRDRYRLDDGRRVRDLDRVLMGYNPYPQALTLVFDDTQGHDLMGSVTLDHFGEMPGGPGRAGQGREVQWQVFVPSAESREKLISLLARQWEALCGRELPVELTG

Rattus norvegicus [7] = organism: Rattus norvegicus; experiment: Selectivity ratio, IC50 for Imidazoline receptor 1 in Sprague-Dawley rat kidney membrane to Ki for Imidazoline receptor 2 in Sprague-Dawley rat whole brain membrane; type: cell membranes
[8] = Displacement of [3H]2-BFI from Imidazoline receptor 2 in Sprague-Dawley rat whole brain membrane
Mus musculus [9] = experiment: Effect on morphine-induced analgesia in efaroxan pretreated CD1 mouse at 10 mg/kg, sc by tail flick test; type: functional, organism-based; design: dose 10 mg/kg
Mus musculus [10] = experiment: Decrease in morphine-induced analgesia in CD1 mouse at 10 mg/kg, sc after 30 mins by tail flick test relative to control; type: functional; design: scale not given: the % may be the effect or the level left; settings: route subcutaneous
Mus musculus [11] = experiment: Antinociceptive activity in CD1 mouse at 10 mg/kg, sc after 30 mins by tail flick test; type: functional, organism-based; design: dose 10 mg/kg
Nischarin [12] = target: T1, Nischarin; experiment: Displacement of [3H]clonidine from Imidazoline receptor 1 in Sprague-Dawley rat kidney membrane; type: cell membranes
Mus musculus [13] = experiment: Increase in morphine-induced analgesia in CD1 mouse at 10 mg/kg, sc after 30 mins by tail flick test relative to control; type: functional; settings: route subcutaneous
Mus musculus [14] = experiment: Antinociceptive activity in CD1 mouse at 20 mg/kg, sc after 30 mins by tail flick test; type: functional, organism-based; design: dose 20 mg/kg
Mus musculus [15] = experiment: Decrease in morphine-induced analgesia in CD1 mouse at 20 mg/kg, sc after 30 mins by tail flick test relative to control; type: functional; design: scale not given: the % may be the effect or the level left; settings: route subcutaneous

| Ratio (Rattus norvegicus [2]) | Ki [3] | pKi [4] | Ki (Nischarin [6]) | Ratio (Rattus norvegicus [7]) | Ki [8] | IC50 (Nischarin [12]) | SMILES | Activity (Mus musculus [1]) | Activity (Mus musculus [5]) | Activity (Mus musculus [9]) | Activity (Mus musculus [10]) | Activity (Mus musculus [11]) | Activity (Mus musculus [13]) | Activity (Mus musculus [14]) | Activity (Mus musculus [15]) |
| --- | --- | --- | --- | --- | --- | --- | --- | --- | --- | --- | --- | --- | --- | --- | --- |
| 45 | 7.13 µM | 6.8 | 6.34 µM | 40 | 0.159 µM | – | c1ccc(-c2ccccc2CCC2=NCCN2)cc1 | inactive | Active | inactive | -41% | – | – | – | – |
| 32.9 | 0.293 µM | – | – | 775 | 0.00889 µM | 6.89 µM | c1ccc(-c2ccsc2)c(CCC2=NCCN2)c1 | – | – | – | -59% | inactive | – | – | – |
| 328 | 0.381 µM | – | – | 22300 | 0.00116 µM | 25.8 µM | c1ccc2c(CCC3=NCCN3)cccc2c1 | – | – | – | – | inactive | 16% | – | – |
| 617 | 2.96 µM | – | – | 744 | 0.0048 µM | 3.57 µM | C1CCC(CCC2=NCCN2)CC1 | – | – | – | – | inactive | 30% | – | – |
| 106 | 0.82 µM | – | – | 373 | 0.00772 µM | 2.88 µM | c1csc(CCC2=NCCN2)c1 | – | – | – | – | inactive | 34% | – | – |
| 794 | 1.99 µM | 8.6 | – | 1480 | 0.0025 µM | – | c1ccc(CCC2=NCCN2)cc1 [PHENYZOLINE] | inactive | Active | inactive | – | – | 60% | – | – |
| 13.9 | 3.54 µM | – | – | 94 | 0.254 µM | 23.9 µM | c1c[nH]c(CCC2=NCCN2)c1 | – | – | – | – | inactive | 14% | – | – |
| 332 | 0.558 µM | – | – | 4380 | 0.00168 µM | 7.36 µM | Cc1ccccc1CCC1=NCCN1 | – | – | – | -44% | inactive | – | – | – |
| 4.4 | 1.12 µM | – | – | 16 | 0.252 µM | 4 µM | O=[N+]([O-])c1cccc(-c2ccccc2CCC2=NCCN2)c1 | – | – | – | – | – | – | inactive | -29% |
| 197 | 0.295 µM | – | – | 2840 | 0.0015 µM | 4.26 µM | Clc1ccccc1CCC1=NCCN1 | – | – | – | -34% | inactive | – | – | – |
| 12.6 | 0.926 µM | – | – | 99.3 | 0.0735 µM | 7.3 µM | Oc1ccccc1CCC1=NCCN1 | – | – | – | -26% | inactive | – | – | – |

| SMILES | Ratio (Rattus norvegicus [2]) | Ki [3] | pKi [4] | Ki (Nischarin [6]) | Ratio (Rattus norvegicus [7]) | Ki [8] | IC50 (Nischarin [12]) | Activity (Mus musculus [1]) | Activity (Mus musculus [5]) | Activity (Mus musculus [9]) | Activity (Mus musculus [10]) | Activity (Mus musculus [11]) | Activity (Mus musculus [13]) | Activity (Mus musculus [14]) | Activity (Mus musculus [15]) |
| --- | --- | --- | --- | --- | --- | --- | --- | --- | --- | --- | --- | --- | --- | --- | --- |
| c1cncc(CCC2=NCCN2)c1 | 157 | 64.8 µM | – | – | 512 | 0.414 µM | 212 µM | – | – | – | – | inactive | 23% | – | – |
